Literature values in US8313770B2, “Modifying drug release in suspensions of ionic resin systems” (NEOS Therapeutics, LP, priority 2007, dated 2012).

## COc1ccccc1OCC(O)CO (stereo not shown) [Guaifenesin, 3(2-methoxyphenoxy)-1,2-propanediol]
  Solubility in water and alcohol: soluble
